Values after ≈ are worked out from the molar mass of the structure shown. Where two headings read alike, the source gives them in different places.
How the values were obtained:
[1] = test system: Cryptococcus neoformans; experiment: agar dilution assay (MIC) against expanded panel of 84 Cryptococcus neoformans isolates; format: cell-based; details: for MIC50: read-out: MIC50 (concentration at which 50% of the strains were inhibited); for MIC90: read-out: MIC90 (concentration at which 90% of the strains were inhibited)
Experimental: (§1) Such activity may be illustrated with test results against Cryptococcus neoformans employing yeast nitrogen base dextrose agar medium. In carrying out the assay, Compound I was solubilized in 10 percent dimethyl sulfoxide (DMSO) supplemented with one drop of Tween 20. Twofold dilutions were made with sterile distilled water/10 percent DMSO to obtain final drug concentrations in the agar dilution assay plates ranging from 128 to 0.06 μg/ml against two strains of Cryptococcus neoformans and subsequently against an expanded panel of 84 Cryptococcus strains at concentrations ranging from 0.008 to 16.0 μg/ml.
(§2) Nystatin or amphotericin B was used as a positive control. For the assay, nystatin was solubilized in 10 percent dimethylformamide and diluted in sterile distilled water; amphotericin B was solubilized by expressing water directly into a lyophilized cake and shaking until the colloidal solution was clear and then diluted in sterile distilled water. The final drug concentrations ranged from 0.063 to 128 μg/ml.

[2] = test system: Alternaria solani; experiment: disk diffusion assay, Alternaria solani; format: cell-based; design: key: fuzzy (F)--a zone that had a fuzzy edge and clear center surrounding the disc; hazy (H)--a zone that was hazy throughout; slightly hazy (S)--a zone in which low levels of growth were discernible throughout the inhibition zone; very hazy (V)--a zone in which the differences between the background lawn and inhibition zone were barely discernible; details: appearance of inhibition zone
Experimental: (§3) The broad antifungal activity of Compound I against fungi may be illustrated with representative assay results in a disk diffusion assay. Filamentous fungi used in the assays were prepared from stock cultures which had been maintained on potato dextrose agar (Difco) and transferred serially at two week intervals using standard microbiological techniques. Yeast used were prepared from stock cultures of strains of yeast which had been maintained frozen at -80° C. in 20 percent aqueous glycerol.
(§4) Seeded agar assay plates were prepared according to the type of assay strain. Inoculum for filamentous fungi was prepared by scraping the surface of stock plates with a moistened sterile dacron swab. The spores and mycelia were then suspended in 10 milliliters of sterile potato dextrose broth (PDB) and adjusted to 70% transmittance (T) at 660 nm. Inoculum for Cryptococcus was prepared from overnight broth cultures. Cultures were then diluted into PDB to a final concentration of either 40% or 70% T at 660 nm. Assay plates were prepared by diluting the inoculum into appropriate molten agar medium, and thereafter cooled to 45° C., to yield a final concentration of 4 percent.
(§5) Samples were applied to 6.2 mm filter paper disks (25 μl disk) and air dried at 24° C. […]
(§6) Following incubation, inhibition zones were measured and recorded. […]

[3] = test system: Aspergillus flavus; experiment: disk diffusion assay, Aspergillus flavus; format: cell-based; design: key: fuzzy (F)--a zone that had a fuzzy edge and clear center surrounding the disc; hazy (H)--a zone that was hazy throughout; slightly hazy (S)--a zone in which low levels of growth were discernible throughout the inhibition zone; very hazy (V)--a zone in which the differences between the background lawn and inhibition zone were barely discernible; details: appearance of inhibition zone
Experimental: as §3, §4, §5, §6

[4] = test system: Aspergillus fumigatus; experiment: disk diffusion assay, Aspergillus fumigatus; format: cell-based; design: key: fuzzy (F)--a zone that had a fuzzy edge and clear center surrounding the disc; hazy (H)--a zone that was hazy throughout; slightly hazy (S)--a zone in which low levels of growth were discernible throughout the inhibition zone; very hazy (V)--a zone in which the differences between the background lawn and inhibition zone were barely discernible; details: appearance of inhibition zone
Experimental: as §3, §4, §5, §6

[5] = test system: Aspergillus niger; experiment: disk diffusion assay, Aspergillus niger; format: cell-based; design: key: fuzzy (F)--a zone that had a fuzzy edge and clear center surrounding the disc; hazy (H)--a zone that was hazy throughout; slightly hazy (S)--a zone in which low levels of growth were discernible throughout the inhibition zone; very hazy (V)--a zone in which the differences between the background lawn and inhibition zone were barely discernible; details: appearance of inhibition zone
Experimental: as §3, §4, §5, §6

[6] = test system: Botrytis allii; experiment: disk diffusion assay, Botrytis allii; format: cell-based; design: key: fuzzy (F)--a zone that had a fuzzy edge and clear center surrounding the disc; hazy (H)--a zone that was hazy throughout; slightly hazy (S)--a zone in which low levels of growth were discernible throughout the inhibition zone; very hazy (V)--a zone in which the differences between the background lawn and inhibition zone were barely discernible; details: appearance of inhibition zone
Experimental: as §3, §4, §5, §6

[7] = test system: Cephalosporium sp.; experiment: disk diffusion assay, Cephalosporium sp.; format: cell-based; design: key: fuzzy (F)--a zone that had a fuzzy edge and clear center surrounding the disc; hazy (H)--a zone that was hazy throughout; slightly hazy (S)--a zone in which low levels of growth were discernible throughout the inhibition zone; very hazy (V)--a zone in which the differences between the background lawn and inhibition zone were barely discernible; details: appearance of inhibition zone
Experimental: as §3, §4, §5, §6

[8] = test system: Ceratocystis ulmi; experiment: disk diffusion assay, Ceratocystis ulmi; format: cell-based; design: key: fuzzy (F)--a zone that had a fuzzy edge and clear center surrounding the disc; hazy (H)--a zone that was hazy throughout; slightly hazy (S)--a zone in which low levels of growth were discernible throughout the inhibition zone; very hazy (V)--a zone in which the differences between the background lawn and inhibition zone were barely discernible; details: appearance of inhibition zone
Experimental: as §3, §4, §5, §6

[9] = test system: Cercospora beticola; experiment: disk diffusion assay, Cercospora beticola; format: cell-based; design: key: fuzzy (F)--a zone that had a fuzzy edge and clear center surrounding the disc; hazy (H)--a zone that was hazy throughout; slightly hazy (S)--a zone in which low levels of growth were discernible throughout the inhibition zone; very hazy (V)--a zone in which the differences between the background lawn and inhibition zone were barely discernible; details: appearance of inhibition zone
Experimental: as §3, §4, §5, §6

[10] = test system: Cochliobolus miyabeanus; experiment: disk diffusion assay, Cochliobolus miyabeanus; format: cell-based; design: key: fuzzy (F)--a zone that had a fuzzy edge and clear center surrounding the disc; hazy (H)--a zone that was hazy throughout; slightly hazy (S)--a zone in which low levels of growth were discernible throughout the inhibition zone; very hazy (V)--a zone in which the differences between the background lawn and inhibition zone were barely discernible; details: appearance of inhibition zone
Experimental: as §3, §4, §5, §6

[11] = test system: Fusarium oxysporum; experiment: disk diffusion assay, Fusarium oxysporum; format: cell-based; design: key: fuzzy (F)--a zone that had a fuzzy edge and clear center surrounding the disc; hazy (H)--a zone that was hazy throughout; slightly hazy (S)--a zone in which low levels of growth were discernible throughout the inhibition zone; very hazy (V)--a zone in which the differences between the background lawn and inhibition zone were barely discernible; details: appearance of inhibition zone
Experimental: as §3, §4, §5, §6

[12] = test system: Penicillium sp.; experiment: disk diffusion assay, Penicillium sp.; format: cell-based; design: key: fuzzy (F)--a zone that had a fuzzy edge and clear center surrounding the disc; hazy (H)--a zone that was hazy throughout; slightly hazy (S)--a zone in which low levels of growth were discernible throughout the inhibition zone; very hazy (V)--a zone in which the differences between the background lawn and inhibition zone were barely discernible; details: appearance of inhibition zone
Experimental: as §3, §4, §5, §6

[13] = test system: Phoma sp.; experiment: disk diffusion assay, Phoma sp.; format: cell-based; design: key: fuzzy (F)--a zone that had a fuzzy edge and clear center surrounding the disc; hazy (H)--a zone that was hazy throughout; slightly hazy (S)--a zone in which low levels of growth were discernible throughout the inhibition zone; very hazy (V)--a zone in which the differences between the background lawn and inhibition zone were barely discernible; details: appearance of inhibition zone
Experimental: as §3, §4, §5, §6

[14] = test system: Rhizomucor miehei; experiment: disk diffusion assay, Rhizomucor miehei; format: cell-based; design: key: fuzzy (F)--a zone that had a fuzzy edge and clear center surrounding the disc; hazy (H)--a zone that was hazy throughout; slightly hazy (S)--a zone in which low levels of growth were discernible throughout the inhibition zone; very hazy (V)--a zone in which the differences between the background lawn and inhibition zone were barely discernible; details: appearance of inhibition zone
Experimental: as §3, §4, §5, §6

[15] = test system: Scopulariopsis communes; experiment: disk diffusion assay, Scopulariopsis communes; format: cell-based; design: key: fuzzy (F)--a zone that had a fuzzy edge and clear center surrounding the disc; hazy (H)--a zone that was hazy throughout; slightly hazy (S)--a zone in which low levels of growth were discernible throughout the inhibition zone; very hazy (V)--a zone in which the differences between the background lawn and inhibition zone were barely discernible; details: appearance of inhibition zone
Experimental: as §3, §4, §5, §6

[16] = test system: Trichoderma lignorum; experiment: disk diffusion assay, Trichoderma lignorum; format: cell-based; design: key: fuzzy (F)--a zone that had a fuzzy edge and clear center surrounding the disc; hazy (H)--a zone that was hazy throughout; slightly hazy (S)--a zone in which low levels of growth were discernible throughout the inhibition zone; very hazy (V)--a zone in which the differences between the background lawn and inhibition zone were barely discernible; details: appearance of inhibition zone
Experimental: as §3, §4, §5, §6

[17] = test system: Trichoderma sp.; experiment: disk diffusion assay, Trichoderma sp.; format: cell-based; design: key: fuzzy (F)--a zone that had a fuzzy edge and clear center surrounding the disc; hazy (H)--a zone that was hazy throughout; slightly hazy (S)--a zone in which low levels of growth were discernible throughout the inhibition zone; very hazy (V)--a zone in which the differences between the background lawn and inhibition zone were barely discernible; details: appearance of inhibition zone
Experimental: as §3, §4, §5, §6

[18] = test system: Ustilago zea; experiment: disk diffusion assay, Ustilago zea; format: cell-based; design: key: fuzzy (F)--a zone that had a fuzzy edge and clear center surrounding the disc; hazy (H)--a zone that was hazy throughout; slightly hazy (S)--a zone in which low levels of growth were discernible throughout the inhibition zone; very hazy (V)--a zone in which the differences between the background lawn and inhibition zone were barely discernible; details: appearance of inhibition zone
Experimental: as §3, §4, §5, §6

[19] = test system: Verticillium serrae; experiment: disk diffusion assay, Verticillium serrae; format: cell-based; design: key: fuzzy (F)--a zone that had a fuzzy edge and clear center surrounding the disc; hazy (H)--a zone that was hazy throughout; slightly hazy (S)--a zone in which low levels of growth were discernible throughout the inhibition zone; very hazy (V)--a zone in which the differences between the background lawn and inhibition zone were barely discernible; details: appearance of inhibition zone
Experimental: as §3, §4, §5, §6

[20] = test system: Cryptococcus albidus; experiment: disk diffusion assay, Cryptococcus albidus; format: cell-based; design: key: fuzzy (F)--a zone that had a fuzzy edge and clear center surrounding the disc; hazy (H)--a zone that was hazy throughout; slightly hazy (S)--a zone in which low levels of growth were discernible throughout the inhibition zone; very hazy (V)--a zone in which the differences between the background lawn and inhibition zone were barely discernible; details: appearance of inhibition zone
Experimental: as §3, §4, §5, §6

[21] = test system: Cryptococcus laurentii; experiment: disk diffusion assay, Cryptococcus laurentii; format: cell-based; design: key: fuzzy (F)--a zone that had a fuzzy edge and clear center surrounding the disc; hazy (H)--a zone that was hazy throughout; slightly hazy (S)--a zone in which low levels of growth were discernible throughout the inhibition zone; very hazy (V)--a zone in which the differences between the background lawn and inhibition zone were barely discernible; details: appearance of inhibition zone
Experimental: as §3, §4, §5, §6

[22] = test system: Cryptococcus neoformans; experiment: agar dilution assay (MIC) against two strains of Cryptococcus neoformans; format: cell-based; details: yeast nitrogen base dextrose agar
Experimental: as §1, §2
The minimum inhibitory concentration (MIC) against the organisms employed on the standard assay were as follows: […]

[23] = test system: certain yeasts, particularly the Cryptococcus species; experiment: activity against certain yeasts (statement); format: cell-based
[24] = test system: Erwinia species; experiment: activity against bacteria (statement), Erwinia; format: cell-based
[25] = test system: Staphylococcus species; experiment: activity against bacteria (statement), Staphylococcus; format: cell-based
[26] = test system: Serratia species; experiment: activity against bacteria (statement), Serratia; format: cell-based
[27] = solubility; details: organic solvents

C[C@@H]1[C@H](O)[C@@H](C)/C=C/C=C/C=C/C=C/C=C/C=C/C=C/[C@H](O[C@@H]2O[C@H](C)[C@@H](O)[C@H](N)[C@@H]2O)C[C@@H]2O[C@](O)(C[C@@H](O)C[C@@H](O)[C@H](O)CC[C@@H](O)C[C@@H](O)CC(=O)O[C@H]1C)C[C@H](O)[C@H]2C(=O)O [Amphotericin B, amphotericin B, reference compound]
MIC50 ([1]; 84 isolates): 0.125 µg/mL (≈ 0.135 µM) | MIC90 ([1]; 84 isolates): 0.25 µg/mL (≈ 0.271 µM)

COc1ccc(CC2NC(=O)C=CCC(C(C)C3OC3c3ccccc3)OC(=O)C(CC(C)C)OC(=O)C(C)CNC2=O)cc1Cl (stereo not shown) [Compound I, 10-[(3-chloro 4methoxyphenyl)methyl]-6-methyl-3-(2-methylpropyl)-16-[1-(3-phenyloxiranyl)ethyl]-1,4-dioxa-8,11-diazacyclohexadec-13-ene-2,5,9,12-tetrone]
Zone qualifier [2]: S | Zone qualifier [3]: S | Zone qualifier [4]: S | Zone qualifier [5]: S | Zone qualifier [6]: S | Zone qualifier [7]: V | Zone qualifier [8]: S | Zone qualifier [9]: S | Zone qualifier [10]: F | Zone qualifier [11]: F | Zone qualifier [12]: S and F | Zone qualifier [13]: S | Zone qualifier [14]: V | Zone qualifier [15]: H | Zone qualifier [16]: S | Zone qualifier [17]: S | Zone qualifier [18]: S | Zone qualifier [19]: V | Zone qualifier [20]: S | Zone qualifier [21]: H and S | MIC ([22]; strain MY1051, read-out: Minimum Inhibitory Concentration): ≤ 0.063 µg/mL | Minimum Inhibitory Concentration ([22]; strain MY1146): ≤ 0.063 µg/mL | MIC ([1]; read-out: G-MIC (geometric means of MIC)): 0.03 µg/mL (≈ 0.0458 µM) | MIC50 [1]: 0.031 µg/mL (≈ 0.0473 µM) | MIC90 [1]: 0.031 µg/mL (≈ 0.0473 µM) | activity against certain yeasts [23]: active | activity against bacteria [24]: active | activity against bacteria [25]: active | activity against bacteria [26]: active | solubility [27]: soluble in organic solvents

C[C@@H]1[C@H](O)[C@@H](C)/C=C/C=C/CC/C=C/C=C/C=C/C=C/C(O[C@H]2O[C@H](C)[C@@H](O)[C@H](N)[C@@H]2O)CC2O[C@](O)(CC(O)C(O)CCC(O)CC(O)CC(O)CC(=O)O[C@H]1C)CC(O)C2C(=O)O (stereo partly shown) [Nystatin, nystatin, reference compound]
Minimum Inhibitory Concentration ([22]; strain MY1051): 1.0 µg/mL | Minimum Inhibitory Concentration ([22]; strain MY1146): 1.0 µg/mL

From patent publication US4946835A (priority 1988, dated 1990)
